Results published in US11844801B2, “Oral compositions of MK2 pathway inhibitor for treatment of immune conditions” (priority 2020, dated 2023).
“And” between values parts separate entries of the source, which are not always exact repeats. Equal values may be shown once. Read-outs that look alike come from different tables or passages of the source.

Assay: Phase 1 SAD/MAD pharmacokinetics of oral ATI-450 in healthy subjects (incl. 80/120 mg BID extension)
Type: in vivo, human
Conditions: for concentration at 7 day / concentration at 2 day / concentration at 3 day / concentration at 4 day / concentration at 5 day / concentration at 6 day: read-out: Ctrough; for Tmax: read-out: Tmax, median (min, max); for concentration at 2 day: day 2; for concentration at 3 day: day 3; for concentration at 4 day: day 4; for concentration at 5 day: day 5; for concentration at 6 day: day 6; for half-life: read-out: t1/2 (converted)
Procedure: Study Design. […] Single ascending dose (SAD) cohorts. […] Multiple ascending dose (MAD) cohorts. […] Blood Sampling and Bioanalysis. Two-milliliter blood samples were collected for PK analysis. […] The lower limit of quantification was 0.500 ng/mL. Pharmacokinetics. […] Bioanalysis Assay of ATI-450. Sample processing was performed by protein precipitation using a 50.0-μL sample volume. […] A triple quadrupole 6500 mass spectrometer equipped with a turbo-ion spray source was used for detection in positive ion mode. […] A linear calibration curve ranging from 0.500 to 500 ng/mL with a 1/x^2 weighting factor was used. The method was minimally required to have intra- and inter-day precision (coefficients of variation) for pooled plasma quality control samples of ≤15% except at the lower limit of quantitation, where ≤20% was acceptable. The calculated concentrations (both inter- and intra-day) were required to be within 15% of nominal at all concentrations except the lower limit of quantitation, where up to 20% deviation from nominal was acceptable. The precision and accuracy of the method exceeded these minimum requirements for assay validation.

[1] = 100 mg single dose, fed vs fasted
[2] = both sexes, human, plasma, oral, 10 mg, 10 mg BID
[3] = both sexes, human, plasma, oral, 10 mg, 10 mg BID, day 7
[4] = both sexes, human, plasma, oral, 30 mg, 30 mg BID
[5] = both sexes, human, plasma, oral, 30 mg, 30 mg BID, day 7
[6] = both sexes, human, plasma, oral, 50 mg, 50 mg BID, day 1
[7] = both sexes, human, plasma, oral, 50 mg, 50 mg BID
[8] = both sexes, human, plasma, oral, 50 mg, 50 mg BID, day 7

For `Cc1cnc(-c2ccnc(C(C)(C)O)n2)cc1-n1c(C)cc(OCc2ncc(F)cc2F)c(Cl)c1=O` (single isomer, unassigned) [ATI-450, 3-chloro-4-((3,5-difluoropyridin-2-yl)methoxy)-2′-(2-(2-hydroxypropan-2-yl)pyrimidin-4-yl)-5′,6-dimethyl-2H-[1,4′-bipyridin]-2-one], the AUC(0-t) (10 mg BID, day 7) was 364.6 ± 110.7 ng·h/mL, the AUCtau (10 mg BID, day 7) was 287.8 ± 81.5 ng·h/mL and the CLss/F (10 mg BID, day 7) was 37.4 ± 10.9 L/h. For the same molecule, the Cavg (10 mg BID, day 7) was 24.0 ± 6.8 ng/mL, the Cmin (10 mg BID, day 7) was 8.1 ± 3.1 ng/mL and the Ctrough (10 mg BID, day 7) was 11.8 ± 5.2 ng/mL. For the same molecule, the “Tmax, median (min, max)” value (10 mg BID, day 7) was 2.0 (2.0-2.0) h, the Vss/F (10 mg BID, day 7) was 517.4 ± 203.2 L and the AUC(0-t) (30 mg BID, day 7) was 1204.6 ± 309.1 ng·h/mL. For the same molecule, the AUCtau (30 mg BID, day 7) was 908.9 ± 163.1 ng·h/mL, the CLss/F (30 mg BID, day 7) was 33.9 ± 5.9 L/h and the Cavg (30 mg BID, day 7) was 75.6 ± 13.4 ng/mL. For the same molecule, the Cmin (30 mg BID, day 7) was 28.8 ± 10.7 ng/mL, the Ctrough (30 mg BID, day 7) was 41.1 ± 18.3 ng/mL and the “Tmax, median (min, max)” value (30 mg BID, day 7) was 2.0 (1.0-4.0) h. For the same molecule, the Vss/F (30 mg BID, day 7) was 483.1 ± 85.1 L, the t1/2 (30 mg BID, day 7) was 10.3 ± 3.2 h and the “Tmax, median (min, max)” value (50 mg BID, day 1) was 2.0 (2.0-4.0) h. The AUC0-12 (50 mg BID, day 7) was 1507.8 (659.9) ng · h/mL, the CLss/F (50 mg BID, day 7) was 37.3 ± 11.7 L/h and the Cavg (50 mg BID, day 7) was 125.6 ± 55.0 ng/mL. The Cmax (50 mg BID, day 7) was 219.0 (77.8) ng/mL, the Cmin (50 mg BID, day 7) was 58.7 ± 32.8 ng/mL and the Ctrough (50 mg BID, day 7) was 87.9 ± 49.4 ng/mL. The “Tmax, median (min, max)” value (50 mg BID, day 7) was 3.0 (1.0, 4.0) h and 3.0 (1.0-4.0) h, the CLss/F (80 mg BID, day 7) was 33.2 ± 7.6 L/h and the Ctrough (80 mg BID, day 7) was 158.3 ± 60.3 ng/mL. For the same molecule, the “AUC0-∞ higher in the fed state” value [1] was “about 24%”, the “Cmax lower in the fed state” value [1] was “about 9%” and the CLss/F (120 mg BID, day 7) was 52.3 ± 17.4 L/h. The Ctrough (120 mg BID, day 7) was 155.8 ± 93.1 ng/mL, the “accumulation after multiple dosing” value (10-50 mg BID) was “up to 1.4 fold” and the “terminal half-life (mean t1/2), range over cohorts” value (MAD cohorts 10-50 mg BID, day 7) was 9 to 12 h. For the same molecule, the concentration at 7 day (both sexes, human, plasma, oral, 10 mg BID, day 7) was 11.8 ng/mL, the AUC(0-t) (both sexes, human, plasma, oral, 10 mg, 10 mg BID, day 1, read-out: AUC0-12) was 200 ng·h/mL and the Cmax (both sexes, human, plasma, oral, 10 mg, 10 mg BID, day 1, read-out: Cmax) was 34.3 ng/mL. It also gave a Tmax (both sexes, human, plasma, oral, 10 mg, 10 mg BID, day 1) of 2 h, a concentration at 2 day [2] of 10.1 ± 4.7 ng/mL and a concentration at 3 day [2] of 9.8 ± 4.5 ng/mL. It also gave a concentration at 4 day [2] of 9.2 ± 5 ng/mL, a concentration at 5 day [2] of 9.6 ± 4.7 ng/mL and a concentration at 6 day [2] of 10.7 ± 4.9 ng/mL. It also gave an AUC(0-t) (both sexes, human, plasma, oral, 10 mg, 10 mg BID, day 7, read-out: AUC0-12) of 288 ng·h/mL, a Cmax (both sexes, human, plasma, oral, 10 mg, 10 mg BID, day 7, read-out: Cmax) of 51.8 ng/mL and a Tmax [3] of 2 h. For the same molecule, the half-life [3] was 9.6 h, the concentration at 7 day (both sexes, human, plasma, oral, 30 mg BID, day 7) was 41.1 ng/mL and the AUC(0-t) (both sexes, human, plasma, oral, 30 mg, 30 mg BID, day 1, read-out: AUC0-12) was 681 ng·h/mL. It also gave a Cmax (both sexes, human, plasma, oral, 30 mg, 30 mg BID, day 1, read-out: Cmax) of 126 ng/mL, a Tmax (both sexes, human, plasma, oral, 30 mg, 30 mg BID, day 1) of 2 h and a concentration at 2 day [4] of 37.5 ± 18.8 ng/mL. For the same molecule, the concentration at 3 day [4] was 44.1 ± 29.3 ng/mL, the concentration at 4 day [4] was 36.8 ± 14.9 ng/mL and the concentration at 5 day [4] was 34.9 ± 13.8 ng/mL. It also gave a concentration at 6 day [4] of 38.9 ± 16.2 ng/mL, an AUC(0-t) (both sexes, human, plasma, oral, 30 mg, 30 mg BID, day 7, read-out: AUC0-12) of 909 ng·h/mL and a Cmax (both sexes, human, plasma, oral, 30 mg, 30 mg BID, day 7, read-out: Cmax) of 146 ng/mL. For the same molecule, the Tmax [5] was 2 h, the half-life [5] was 10.3 h and the concentration at 7 day (both sexes, human, plasma, oral, 50 mg BID, day 7) was 87.9 ng/mL. The AUC [6] was 1180 ± 340 ng·h/mL, the AUC(0-t) (both sexes, human, plasma, oral, 50 mg, 50 mg BID, day 1, read-out: AUC0-12) was 1180 ng·h/mL and the AUC(0-t) (both sexes, human, plasma, oral, 50 mg, 50 mg BID, day 1, read-out: AUC0-t) was 1180 ± 340 ng·h/mL. The Cmax (both sexes, human, plasma, oral, 50 mg, 50 mg BID, day 1, read-out: Cmax) was 187 ng/mL, the Tmax [6] was 2 h and the concentration at 2 day [7] was 84 ± 40.6 ng/mL. The concentration at 3 day [7] was 80.6 ± 44.2 ng/mL, the concentration at 4 day [7] was 81.5 ± 49.6 ng/mL and the concentration at 5 day [7] was 81.5 ± 43.9 ng/mL. The concentration at 6 day [7] was 76.4 ± 38.6 ng/mL, the AUC [8] was 1510 ± 660 ng·h/mL and the AUC(0-t) (both sexes, human, plasma, oral, 50 mg, 50 mg BID, day 7, read-out: AUC0-12) was 1510 ng·h/mL. It also gave an AUC(0-t) (both sexes, human, plasma, oral, 50 mg, 50 mg BID, day 7, read-out: AUC0-24, total daily exposure calculated as AUC0-12 × 2) of 3040 ng·h/mL, an AUC(0-t) (both sexes, human, plasma, oral, 50 mg, 50 mg BID, day 7, read-out: AUC0-t) of 2260 ± 1070 ng·h/mL and a Cmax (both sexes, human, plasma, oral, 50 mg, 50 mg BID, day 7, read-out: Cmax) of 219 ng/mL. For the same molecule, the Tmax [8] was 3 h, the half-life [8] was 11.6 h and the concentration at 7 day (both sexes, human, plasma, oral, 80 mg BID, day 7) was 158 ng/mL. It also gave an AUC (both sexes, human, plasma, oral, 80 mg, 80 mg BID, day 1) of 1690 ± 454 ng·h/mL and an AUC(0-t) (both sexes, human, plasma, oral, 80 mg, 80 mg BID, day 1, read-out: AUC0-t) of 1680 ± 451 ng·h/mL.
